Assay results: ChEMBL document CHEMBL3885881, “DrugMatrix”

Organism: Rattus norvegicus
Test: DrugMatrix - Regimen: Daily Repeat
Assay type: toxicity, organism-based, Sprague-Dawley
Parameters: regimen Daily Repeat, gender Male, age 6-8 weeks
Conditions: in vivo, po, route oral GAVAGE, vehicle .5 % CMC; for ABSOLUTE BASOPHIL / ABSOLUTE EOSINOPHIL / ABSOLUTE LYMPHOCYTE / ABSOLUTE MONOCYTE / ABSOLUTE SEGMENTED NEUTROPHIL / BASOPHIL / EOSINOPHIL / ERYTHROCYTE COUNT / HEMATOCRIT / HEMOGLOBIN / LEUKOCYTE COUNT / LYMPHOCYTE / MEAN CORPUSCULAR HEMOGLOBIN / MEAN CORPUSCULAR HEMOGLOBIN CONCENTRATION / MEAN CORPUSCULAR VOLUME / MONOCYTE / NEUTROPHIL / NUCLEATED RED BLOOD CELLS / PLATELET COUNT: tissue Blood; for ALANINE AMINOTRANSFERASE / ALBUMIN / ALKALINE PHOSPHATASE / ASPARTATE AMINOTRANSFERASE / BLOOD UREA NITROGEN / CARBON DIOXIDE / CHLORIDE / CHOLESTEROL / CREATINE PHOSPHOKINASE / CREATININE / GLUCOSE / LACTATE DEHYDROGENASE / LIPASE / PHOSPHORUS / POTASSIUM / SODIUM / TOTAL BILIRUBIN / TOTAL PROTEIN / URIC ACID: tissue Plasma
[1] = 3 mg/kg, 120 h, dose level Low, time 5 day
[2] = 30 mg/kg, 72 h, dose level High, time 3 day
[3] = 30 mg/kg, 120 h, dose level High, time 5 day

CC(=O)Nc1ccc2c(c1)Cc1ccccc1-2 [2-ACETYLAMINOFLUORENE]
ABSOLUTE BASOPHIL [1]: 0 CELLS/uL | ABSOLUTE EOSINOPHIL [1]: 0 CELLS/uL | ABSOLUTE LYMPHOCYTE [1]: 14012 CELLS/uL | ABSOLUTE MONOCYTE [1]: 174.33 CELLS/uL | ABSOLUTE SEGMENTED NEUTROPHIL [1]: 1113.67 CELLS/uL | BASOPHIL [1]: 0% | EOSINOPHIL [1]: 0% | ERYTHROCYTE COUNT [1]: 5.69 x10E6/uL | HEMATOCRIT [1]: 34.77% | HEMOGLOBIN [1]: 13.53 G/DL | LEUKOCYTE COUNT [1]: 15.3 x10E3/uL | LYMPHOCYTE [1]: 92% | MEAN CORPUSCULAR HEMOGLOBIN [1]: 23.73 pg | MEAN CORPUSCULAR HEMOGLOBIN CONCENTRATION [1]: 39 G/DL | MEAN CORPUSCULAR VOLUME [1]: 61 fL | MONOCYTE [1]: 1% | NEUTROPHIL [1]: 7% | NUCLEATED RED BLOOD CELLS [1]: 0 /100WBC | PLATELET COUNT [1]: 1174.67 x10E3/uL | ALANINE AMINOTRANSFERASE [1]: 51 u/L | ALBUMIN [1]: 4.03 G/DL | ALKALINE PHOSPHATASE [1]: 355 u/L | ASPARTATE AMINOTRANSFERASE [1]: 106.67 u/L | BLOOD UREA NITROGEN [1]: 16.67 mg/dL | CARBON DIOXIDE [1]: 29.67 mmol/L | CHLORIDE [1]: 98 MEQ/L | CHOLESTEROL [1]: 70.67 mg/dL | CREATINE PHOSPHOKINASE [1]: 459.33 u/L | CREATININE [1]: 0.16 mg/dL | GLUCOSE [1]: 147 mg/dL | LACTATE DEHYDROGENASE [1]: 770.33 u/L | LIPASE [1]: 9.67 u/L | PHOSPHORUS [1]: 11.37 mg/dL | POTASSIUM [1]: 6.6 MEQ/L | SODIUM [1]: 139.93 MEQ/L | TOTAL BILIRUBIN [1]: 0.23 mg/dL | TOTAL PROTEIN [1]: 5.9 G/DL | URIC ACID [1]: 1.5 mg/dL | ABSOLUTE BASOPHIL [2]: 0 CELLS/uL | ABSOLUTE EOSINOPHIL [2]: 86 CELLS/uL | ABSOLUTE LYMPHOCYTE [2]: 12836 CELLS/uL | ABSOLUTE MONOCYTE [2]: 177.33 CELLS/uL | ABSOLUTE SEGMENTED NEUTROPHIL [2]: 1034 CELLS/uL | BASOPHIL [2]: 0% | EOSINOPHIL [2]: 0.67% | ERYTHROCYTE COUNT [2]: 5.86 x10E6/uL | HEMATOCRIT [2]: 36.83% | HEMOGLOBIN [2]: 14.6 G/DL | LEUKOCYTE COUNT [2]: 14.13 x10E3/uL | LYMPHOCYTE [2]: 90.67% | MEAN CORPUSCULAR HEMOGLOBIN [2]: 24.9 pg | MEAN CORPUSCULAR HEMOGLOBIN CONCENTRATION [2]: 39.6 G/DL | MEAN CORPUSCULAR VOLUME [2]: 62.87 fL | MONOCYTE [2]: 1.33% | NEUTROPHIL [2]: 7.33% | NUCLEATED RED BLOOD CELLS [2]: 0 /100WBC | PLATELET COUNT [2]: 1279.33 x10E3/uL | ALANINE AMINOTRANSFERASE [2]: 53.67 u/L | ALBUMIN [2]: 3.73 G/DL | ALKALINE PHOSPHATASE [2]: 368.67 u/L | ASPARTATE AMINOTRANSFERASE [2]: 126.33 u/L | BLOOD UREA NITROGEN [2]: 15 mg/dL | CARBON DIOXIDE [2]: 22.67 mmol/L | CHLORIDE [2]: 102 MEQ/L | CHOLESTEROL [2]: 53 mg/dL | CREATINE PHOSPHOKINASE [2]: 1143.67 u/L | CREATININE [2]: 0.21 mg/dL | GLUCOSE [2]: 158.67 mg/dL | LACTATE DEHYDROGENASE [2]: 858.33 u/L | LIPASE [2]: 10.33 u/L | PHOSPHORUS [2]: 10.73 mg/dL | POTASSIUM [2]: 6.07 MEQ/L | SODIUM [2]: 142.33 MEQ/L | TOTAL BILIRUBIN [2]: 0.2 mg/dL | TOTAL PROTEIN [2]: 5.3 G/DL | URIC ACID [2]: 1.47 mg/dL | ABSOLUTE BASOPHIL [3]: 0 CELLS/uL | ABSOLUTE EOSINOPHIL [3]: 0 CELLS/uL | ABSOLUTE LYMPHOCYTE [3]: 17906.67 CELLS/uL | ABSOLUTE MONOCYTE [3]: 125.33 CELLS/uL | ABSOLUTE SEGMENTED NEUTROPHIL [3]: 368 CELLS/uL | BASOPHIL [3]: 0% | EOSINOPHIL [3]: 0% | ERYTHROCYTE COUNT [3]: 6.43 x10E6/uL | HEMATOCRIT [3]: 39.07% | HEMOGLOBIN [3]: 15.4 G/DL | LEUKOCYTE COUNT [3]: 18.4 x10E3/uL | LYMPHOCYTE [3]: 97.33% | MEAN CORPUSCULAR HEMOGLOBIN [3]: 24 pg | MEAN CORPUSCULAR HEMOGLOBIN CONCENTRATION [3]: 39.43 G/DL | MEAN CORPUSCULAR VOLUME [3]: 60.83 fL | MONOCYTE [3]: 0.67% | NEUTROPHIL [3]: 2% | NUCLEATED RED BLOOD CELLS [3]: 0 /100WBC | PLATELET COUNT [3]: 1336 x10E3/uL | ALANINE AMINOTRANSFERASE [3]: 44 u/L | ALBUMIN [3]: 3.8 G/DL | ALKALINE PHOSPHATASE [3]: 317.33 u/L | ASPARTATE AMINOTRANSFERASE [3]: 100.33 u/L | BLOOD UREA NITROGEN [3]: 20.33 mg/dL | CARBON DIOXIDE [3]: 27.33 mmol/L | CHLORIDE [3]: 104.33 MEQ/L | CHOLESTEROL [3]: 46.67 mg/dL | CREATINE PHOSPHOKINASE [3]: 551.33 u/L | CREATININE [3]: 0.22 mg/dL | GLUCOSE [3]: 146.33 mg/dL | LACTATE DEHYDROGENASE [3]: 501 u/L | LIPASE [3]: 9.33 u/L | PHOSPHORUS [3]: 11.33 mg/dL | POTASSIUM [3]: 6.51 MEQ/L | SODIUM [3]: 146.97 MEQ/L | TOTAL BILIRUBIN [3]: 0.17 mg/dL | TOTAL PROTEIN [3]: 5.4 G/DL | URIC ACID [3]: 1.93 mg/dL
